Experimental data as given in article PMC7641324, “Small-molecule sensitization of RecBCD helicase–nuclease to a Chi hotspot-activated state” (Nucleic Acids Research, 2020).

Target: T1, RecBCD enzyme (RecB subunit) (Escherichia coli, UniProt P08394)
T1 construct: RecBCD holoenzyme (330 kDa, three subunits); with RecC and RecD
Assay: RecBCD nuclease assay with [3H] phage T7 DNA, […] ATP; unaffected by Triton X-100
Format: biochemical

T1 sequence (P08394 2-1180): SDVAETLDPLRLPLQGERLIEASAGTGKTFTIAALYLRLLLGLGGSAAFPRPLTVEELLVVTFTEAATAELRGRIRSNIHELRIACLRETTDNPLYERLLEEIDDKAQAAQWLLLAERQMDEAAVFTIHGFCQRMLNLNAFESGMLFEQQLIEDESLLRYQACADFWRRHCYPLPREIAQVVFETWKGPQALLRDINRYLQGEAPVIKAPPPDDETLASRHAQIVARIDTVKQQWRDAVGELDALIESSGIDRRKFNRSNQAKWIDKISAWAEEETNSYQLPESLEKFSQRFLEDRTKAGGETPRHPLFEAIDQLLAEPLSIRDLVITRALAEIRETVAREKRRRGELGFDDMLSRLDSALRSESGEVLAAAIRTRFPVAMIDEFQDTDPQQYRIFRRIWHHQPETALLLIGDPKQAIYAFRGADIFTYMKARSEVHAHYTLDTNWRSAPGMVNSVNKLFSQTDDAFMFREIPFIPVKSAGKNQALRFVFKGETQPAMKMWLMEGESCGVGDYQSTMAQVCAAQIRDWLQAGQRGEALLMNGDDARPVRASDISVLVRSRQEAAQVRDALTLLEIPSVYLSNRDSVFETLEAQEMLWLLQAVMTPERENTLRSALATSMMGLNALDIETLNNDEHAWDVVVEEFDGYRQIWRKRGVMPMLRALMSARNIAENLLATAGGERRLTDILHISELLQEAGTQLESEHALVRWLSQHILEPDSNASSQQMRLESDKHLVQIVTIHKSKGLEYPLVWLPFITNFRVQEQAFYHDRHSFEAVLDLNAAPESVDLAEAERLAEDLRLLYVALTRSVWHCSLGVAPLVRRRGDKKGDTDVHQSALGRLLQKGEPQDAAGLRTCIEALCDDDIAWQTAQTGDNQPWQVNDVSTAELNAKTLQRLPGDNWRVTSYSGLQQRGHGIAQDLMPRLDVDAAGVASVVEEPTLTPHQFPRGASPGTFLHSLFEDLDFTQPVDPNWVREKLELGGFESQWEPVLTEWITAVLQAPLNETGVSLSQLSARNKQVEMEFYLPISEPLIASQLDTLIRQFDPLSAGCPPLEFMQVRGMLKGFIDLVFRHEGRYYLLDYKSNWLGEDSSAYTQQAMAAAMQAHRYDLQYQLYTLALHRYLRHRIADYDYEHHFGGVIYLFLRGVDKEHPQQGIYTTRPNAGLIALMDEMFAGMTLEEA
T1 sequence (P07648 whole entry, further chain): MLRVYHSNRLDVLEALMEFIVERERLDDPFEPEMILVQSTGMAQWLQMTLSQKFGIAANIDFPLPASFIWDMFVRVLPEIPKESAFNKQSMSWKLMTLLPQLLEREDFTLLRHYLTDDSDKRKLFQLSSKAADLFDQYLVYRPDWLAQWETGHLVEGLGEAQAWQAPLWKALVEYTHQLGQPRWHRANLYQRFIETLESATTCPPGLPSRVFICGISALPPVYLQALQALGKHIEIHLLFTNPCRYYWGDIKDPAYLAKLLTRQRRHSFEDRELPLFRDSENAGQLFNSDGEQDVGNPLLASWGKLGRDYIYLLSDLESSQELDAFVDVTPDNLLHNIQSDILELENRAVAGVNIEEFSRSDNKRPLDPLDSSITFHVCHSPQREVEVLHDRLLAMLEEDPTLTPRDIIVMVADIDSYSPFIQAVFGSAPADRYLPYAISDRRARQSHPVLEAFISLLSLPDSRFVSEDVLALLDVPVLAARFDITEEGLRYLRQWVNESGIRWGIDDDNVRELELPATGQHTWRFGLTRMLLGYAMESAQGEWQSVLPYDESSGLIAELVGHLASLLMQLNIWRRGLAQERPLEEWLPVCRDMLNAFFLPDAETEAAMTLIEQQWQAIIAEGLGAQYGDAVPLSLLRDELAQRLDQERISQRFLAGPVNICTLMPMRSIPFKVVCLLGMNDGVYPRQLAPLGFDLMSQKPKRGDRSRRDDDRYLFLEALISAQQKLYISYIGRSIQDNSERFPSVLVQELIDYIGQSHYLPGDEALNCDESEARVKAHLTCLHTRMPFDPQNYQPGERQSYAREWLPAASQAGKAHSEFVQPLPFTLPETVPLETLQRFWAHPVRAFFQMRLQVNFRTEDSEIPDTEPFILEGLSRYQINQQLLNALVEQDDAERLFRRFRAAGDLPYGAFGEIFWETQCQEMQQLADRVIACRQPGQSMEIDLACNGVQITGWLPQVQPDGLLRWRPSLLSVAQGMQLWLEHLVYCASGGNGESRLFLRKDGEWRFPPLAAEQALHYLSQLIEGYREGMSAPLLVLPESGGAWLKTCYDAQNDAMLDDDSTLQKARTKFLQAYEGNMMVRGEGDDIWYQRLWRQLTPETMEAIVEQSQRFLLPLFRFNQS
T1 sequence (P04993 whole entry, further chain): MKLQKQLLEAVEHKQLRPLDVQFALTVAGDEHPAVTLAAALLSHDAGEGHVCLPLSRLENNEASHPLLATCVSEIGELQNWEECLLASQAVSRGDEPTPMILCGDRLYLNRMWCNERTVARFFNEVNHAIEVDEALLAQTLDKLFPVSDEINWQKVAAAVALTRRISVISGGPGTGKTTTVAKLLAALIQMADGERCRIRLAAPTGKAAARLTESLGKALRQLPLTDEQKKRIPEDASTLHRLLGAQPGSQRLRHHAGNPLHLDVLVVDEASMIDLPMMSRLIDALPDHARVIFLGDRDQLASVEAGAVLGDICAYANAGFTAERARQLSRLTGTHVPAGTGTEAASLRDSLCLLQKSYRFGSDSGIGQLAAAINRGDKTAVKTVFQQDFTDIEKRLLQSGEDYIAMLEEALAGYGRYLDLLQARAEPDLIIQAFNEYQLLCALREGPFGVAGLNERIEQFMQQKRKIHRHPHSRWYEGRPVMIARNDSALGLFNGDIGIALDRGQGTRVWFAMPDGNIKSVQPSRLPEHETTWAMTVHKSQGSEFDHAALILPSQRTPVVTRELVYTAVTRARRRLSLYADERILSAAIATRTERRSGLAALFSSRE

Question: For `CCC(Sc1nnc2n(CCOc3ccccc3Cl)c3ccccc3n12)C(=O)O` (stereo not shown) [NSAC1003, 2-({7-[2-(2-chlorophenoxy)ethyl]-2,4,5,7-tetraazatricyclo[6.4.0.0^2,^6]dodeca-1(8),3,5,9,11-pentaen-3-yl}sulfanyl)butanoic acid], which IC50 is on record?
Answer: 6.3 ± 0.3 µM
